In patent US9670214B2, “Small molecule myristate inhibitors of Bcr-abl and methods of use” (DANA-FARBER CANCER INSTITUTE, INC., priority 2007, dated 2017):

Tests used:
[1] = system: Ba/F3 cells (IL-3 dependent murine pro-B cell line); assay: Proliferation assay (MTT), parental Ba/F3 cells; assay type: cell-based; details: Mus musculus, 48 h, drug concentrations 0.005-10 μM, read-out: BaF3
Summary of the method: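 Parental Ba/F3 cells grown with 10 U/ml murine IL-3 in RPMI/10% FBS, plated at 0.3-0.6×10^6/ml with compound at 0.005-10 μM for 48 h, 37 °C. Viability by MTT reduction; IC50 from percent growth relative to DMSO controls.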

[2] = target: Bcr-abl (Ba/F3.p210 cells) (Homo sapiens, UniProt P00519); assay: Proliferation assay (MTT), wild type Bcr-abl expressing Ba/F3 cells; assay type: cell-based, murine; details: 48 h, drug concentrations 0.005-10 μM
Description: Wild type Bcr-abl expressing 32D (32D.p210) and Ba/F3 (Ba/F3.p210) cells, and mutant Bcr-abl expressing cell lines Ba/F3.p210^G250E, Ba/F3.p210^E255V, Ba/F3.p210^T315I, Ba/F3.p210^F317L and Ba/F3.p210^M351T, as well as Ba/F3 cells transformed with Flt-3-ITD kinase. Additional assays included Ba/F3 cells expressing the fusion protein kinases TEL-PDGFRβ, TEL-JAK1, NPM-ALK, TEL-cKit, Tel-Bmx, Tel-FGR3, Tel-Lck and Ba/F3.TPR-met cells. All the above cell lines were maintained in RPMI-1640 medium with L-Glutamine, 10% FBS and 1 mg/ml geneticin (Gibco).
Cells (0.3-0.6×10^6/ml) were plated in duplicate or triplicate in 96-well plates containing increasing drug concentrations (0.005-10 μM). After incubation at 37° C. in 5% CO2 for 48 h, the effect of the compounds on cell viability was determined by MTT (Promega) colorimetric dye reduction method. Inhibition of cell proliferation was calculated as a percentage of growth of DMSO treated cells, and IC50 values were determined with Microsoft Excel XLfit3.

[3] = target: Bcr-abl T315I (Ba/F3.p210^T315I cells) (Homo sapiens, UniProt P00519, T315I, cells depend on it); assay: Proliferation assay (MTT), T315I mutant Bcr-abl expressing Ba/F3 cells; assay type: cell-based, murine; details: 48 h, drug concentrations 0.005-10 μM
Summary of the method: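 Ba/F3 cells expressing p210 Bcr-abl (wild type or T315I), 0.3-0.6×10^6/ml, exposed to 0.005-10 μM compound for 48 h at 37° C, 5% CO2. Viability read by MTT dye reduction; inhibition expressed as % of DMSO-treated growth, IC50 from curve fit.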

Row | SMILES | IC50 [1] [µM] | IC50 [2] [µM] | IC50 [3] [µM]
1 | Cn1ccc2c(Nc3ccc(OC(F)(F)F)cc3)ncnc21 | > 10 | 6.89 | > 10
2 | NC(=O)CCn1ccc2c(Nc3ccc(OC(F)(F)F)cc3)ncnc21 | > 10 | 0.49 | 6.42
3 | COCCCNC(=O)c1ccc2c(Nc3ccc(OC(F)(F)F)cc3)ncnc2c1 | > 10 | 4.09 | > 10
4 | O=C(Nc1cccc(C(F)(F)F)c1)c1ccc2c(Nc3ccc(OC(F)(F)F)cc3)ncnc2c1 | 4.5 | 1.28 | 1.56
5 | O=C(NCCO)c1ccc2c(Nc3ccc(OC(F)(F)F)cc3)ncnc2c1 | > 10 | 2.15 | > 10
6 | Cn1c(C(N)=O)cc2c(Nc3ccc(OC(F)(F)F)cc3)ncnc21 | > 10 | 0.62 | > 10
7 | Cn1c(C(=O)N2CCC(C(N)=O)CC2)cc2c(Nc3ccc(OC(F)(F)F)cc3)ncnc21 | > 10 | 0.82 | > 10
8 | COC1CCN(C(=O)c2ccc3c(Nc4ccc(OC(F)(F)F)cc4)ncnc3c2)CC1 | > 10 | 0.639 | 0.895
9 | CCN1CCCC1NC(=O)c1cc2c(Nc3ccc(OC(F)(F)F)cc3)ncnc2n1C (stereo not drawn) | 5.12 | 2.95 | 8.47
